Test systems include M14 melanoma; TK-10 renal; OVCAR-4 ovarian; EKVX NSCLC; HCC-2998 colon; LOX IMVI melanoma; NCI-H23 lung; HOP-62 NSCLC; OVCAR-8 ovarian; MDA-MB-231 breast.
Common to all, as to test: NCI tumour cell line growth inhibition, 48 h

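Growth conditions: 96-well plates. Treatment: test compound, 48 hours, 5 concentrations. Analysis: linear interpolation between bracketing concentrations; unreached endpoints set to highest concentration. GI50: concentration for 50% inhibition of growth. TGI marks complete inhibition of growth.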

This is an account of results in PubChem BioAssay (NCI).

With `O=C1N/C(=C\[N+](=O)[O-])c2ccccc21`, the TGI with M14 melanoma, in the assay with TK-10 renal, in the assay with OVCAR-4 ovarian, with EKVX NSCLC, with HCC-2998 colon and with LOX IMVI melanoma was more than 100 µM in each case. Further, the TGI in the assay on NCI-H23 lung, with HOP-62 NSCLC and in the assay on OVCAR-8 ovarian was more than 100 µM throughout.

For `O=C(Nc1cccc(O)c1)C(=O)C1C(=O)NC(=S)NC1=O`, the TGI in the assay with M14 melanoma, with OVCAR-4 ovarian, with EKVX NSCLC, in the assay with HCC-2998 colon, with LOX IMVI melanoma and in the assay with NCI-H23 lung was more than 100 µM throughout. Besides, in the assay with OVCAR-8 ovarian, the TGI is more than 100 µM.

Turning to `CCC1=CCN(c2cc(C)ccn2)OC1c1ccc(OC)cc1` (configuration not stated), the TGI in the assay with M14 melanoma was more than 100 µM; in the assay with OVCAR-4 ovarian it was more than 100 µM; in the assay on EKVX NSCLC, more than 100 µM; in the assay with HCC-2998 colon it was 86.8 µM; in the assay with LOX IMVI melanoma, more than 100 µM; with NCI-H23 lung, more than 100 µM. The TGI in the assay on HOP-62 NSCLC and in the assay on OVCAR-8 ovarian was more than 100 µM in each case.

`O=C(Nc1ccc(C(F)(F)F)cc1[N+](=O)[O-])C(=O)C1NC(=S)NC1=O` (configuration not stated): the TGI with M14 melanoma, in the assay with TK-10 renal, in the assay on OVCAR-4 ovarian, in the assay with EKVX NSCLC, in the assay with HCC-2998 colon and in the assay on LOX IMVI melanoma was more than 100 µM in each case. For the same molecule, the TGI in the assay on NCI-H23 lung, in the assay on HOP-62 NSCLC and in the assay with OVCAR-8 ovarian was more than 100 µM each time.

Regarding `NC(CCCC(N)P(=O)(O)O)P(=O)(O)O` (configuration not stated), the TGI in the assay with M14 melanoma, with TK-10 renal, with EKVX NSCLC, in the assay with HCC-2998 colon, in the assay on LOX IMVI melanoma and with NCI-H23 lung was more than 100 µM throughout. Further, the TGI in the assay with OVCAR-8 ovarian was more than 100 µM.

Take `CC(=O)Oc1cc2c(cc1OC(C)=O)C1(C)CCC2(C)c2cc(OC(C)=O)c(OC(C)=O)cc21`: the TGI was 90.5 µM in the assay with M14 melanoma; 76.6 µM with TK-10 renal; 32.1 µM in the assay with OVCAR-4 ovarian; more than 100 µM in the assay on EKVX NSCLC; 71.9 µM in the assay with HCC-2998 colon; more than 100 µM in the assay with LOX IMVI melanoma. The TGI in the assay with NCI-H23 lung is more than 100 µM; in the assay on HOP-62 NSCLC it was 58.2 µM; in the assay on OVCAR-8 ovarian it was more than 100 µM.

With `CC(=O)c1ccc(NC(=O)/C(CC(=O)c2sc(-c3cccnc3)nc2C)=N/NC(N)=O)cc1`, the TGI with M14 melanoma, in the assay with OVCAR-4 ovarian, in the assay on LOX IMVI melanoma and in the assay on OVCAR-8 ovarian was more than 100 µM in each case.

Regarding `C=C(C)[C@@H]1CC[C@]2(COCCCN)CC[C@]3(C)[C@H](CC[C@@H]4[C@@](C)(CCCNCCCN)[C@H](C(=C)C)CC[C@]43C)[C@@H]12`, the GI50 is 1.9 µM in the assay with M14 melanoma; 1.68 µM in the assay with TK-10 renal; 1.72 µM with OVCAR-4 ovarian; 1.71 µM with EKVX NSCLC; 1.79 µM in the assay on NCI-H23 lung; 1.66 µM in the assay with HOP-62 NSCLC. The GI50 was 1.8 µM in the assay on MDA-MB-231 breast and 1.91 µM in the assay on OVCAR-8 ovarian. The TGI in the assay on M14 melanoma came to 3.62 µM; in the assay with TK-10 renal it was 3.15 µM; with OVCAR-4 ovarian it was 3.17 µM; in the assay on EKVX NSCLC, 3.21 µM; with NCI-H23 lung, 3.63 µM; in the assay on HOP-62 NSCLC it was 3.25 µM. The TGI turned out to be 3.29 µM in the assay on MDA-MB-231 breast and 3.61 µM in the assay on OVCAR-8 ovarian.

With `COc1ccc(NC(=O)CC/C(CC(=O)c2ccco2)=N/NC(=O)C(N)=O)cc1`, the TGI in the assay with M14 melanoma, in the assay on TK-10 renal, in the assay on OVCAR-4 ovarian, in the assay on EKVX NSCLC, in the assay on HCC-2998 colon and in the assay on LOX IMVI melanoma was more than 100 µM throughout. Further, the TGI with NCI-H23 lung, with HOP-62 NSCLC and in the assay on OVCAR-8 ovarian was more than 100 µM throughout.

In the case of `O=S(=O)(C1=CC(S(=O)(=O)c2ccccc2)CN(Cc2ccccc2)C1c1cccc2ccccc12)c1ccccc1` (configuration not stated), the TGI in the assay on M14 melanoma, in the assay with TK-10 renal, in the assay on OVCAR-4 ovarian, in the assay on EKVX NSCLC, in the assay with HCC-2998 colon and in the assay on LOX IMVI melanoma was more than 69 µM throughout. Further, the TGI in the assay with NCI-H23 lung, in the assay with HOP-62 NSCLC and in the assay on OVCAR-8 ovarian was more than 69 µM in each case.

Take `CC(=O)Oc1c(C)c(-c2ccccc2)c(C)c(-c2ccccc2)c1C(=S)c1ccccc1`: the TGI in the assay on M14 melanoma, in the assay with TK-10 renal, in the assay with EKVX NSCLC, in the assay on HCC-2998 colon, in the assay with LOX IMVI melanoma and with NCI-H23 lung was more than 100 µM in each case. Also, the TGI with HOP-62 NSCLC and in the assay with OVCAR-8 ovarian was more than 100 µM throughout.

Regarding `C=CC[P@]1(=O)O[C@H](c2ccccc2)[C@H](C)N1C`, the TGI in the assay with M14 melanoma, with TK-10 renal, with OVCAR-4 ovarian, in the assay with EKVX NSCLC, in the assay on HCC-2998 colon and in the assay on LOX IMVI melanoma was more than 100 µM each time. In addition, the TGI in the assay with NCI-H23 lung and in the assay with OVCAR-8 ovarian was more than 100 µM each time.

For `COc1ccc(C=O)cc1O[Si](C)(C)C(C)(C)C`, the TGI in the assay with M14 melanoma, with TK-10 renal, in the assay on OVCAR-4 ovarian, in the assay with EKVX NSCLC, in the assay on HCC-2998 colon and in the assay with LOX IMVI melanoma was more than 100 µM each time. In addition, the TGI in the assay with NCI-H23 lung, in the assay on HOP-62 NSCLC and in the assay on OVCAR-8 ovarian was more than 100 µM each time.

As to `CC1(O)C(C)(O)C2(C)O[Te]3(OC12C)OC1(C)C(C)(O)C(C)(O)C1(C)O3` (configuration not stated), the TGI with M14 melanoma was more than 100 µM; with TK-10 renal, more than 100 µM; with OVCAR-4 ovarian, 77.9 µM; in the assay on EKVX NSCLC it was more than 100 µM; with HCC-2998 colon it was more than 100 µM; with LOX IMVI melanoma, 18.9 µM. Further, the TGI in the assay with NCI-H23 lung is 29.7 µM; in the assay on HOP-62 NSCLC, more than 100 µM; with OVCAR-8 ovarian, 32 µM.

For `O=C(Nc1ccc(Cl)cc1)C1C(=O)C(=O)N(c2ccc(Cl)cc2)C1=O` (configuration not stated), the TGI in the assay with M14 melanoma, with TK-10 renal, in the assay on EKVX NSCLC, in the assay with LOX IMVI melanoma, in the assay on NCI-H23 lung and in the assay on OVCAR-8 ovarian was more than 100 µM in each case.
